The source of these data is patent US20260015364A1, “PIPERAZINE BRIDGE-SUBSTITUTED HETEROCYCLIC PYRIMIDINE COMPOUND” (MEDSHINE DISCOVERY INC., priority 2022, published 2026).

This assay deals with p-ERK in GP2D cells. The assay is described as follows: p-ERK inhibition test of GP2D cells (HTRF). Format: cell-based. The conditions noted are these: Homo sapiens, 1 hour compound incubation. As to the method: • 1). GP2D cells are seeded in a transparent 96-well cell culture plate, with 80 μL of cell suspension per well and 8000 cells per well, and the cell plate is incubated in a carbon dioxide incubator at 37° C. overnight; • 2). 2 μL of the compound is added to 78 μL of cell culture medium; after mixing well, 20 μL of the compound solution is taken and added to the corresponding cell plate wells, and the cell plate is put back into the carbon dioxide incubator to incubate for another 1 hour; • 3). After the incubation is completed, the cell supernatant is discarded, and 50 μL of 1× cell lysate is added to each well, and incubated at room temperature for 30 minutes with shaking; • 4). Phospho-ERK1/2 Eu Cryptate antibody and Phospho-ERK1/2 d2 antibody are 20-fold diluted using detection buffer; • 5). […] After the incubation is completed, a multimode microplate reader is used to read HTRF excitation: 320 nm, emission: 615 nm, 665 nm; • 7). The IC50 of the test compound is calculated.
• 1). […] After the incubation was completed, a multimode microplate reader was used to read HTRF excitation: 320 nm, emission: 615 nm, 665 nm; • 7) The IC50 of the test compound was calculated.

Consider `Nc1cc(F)c(C(F)(F)F)c(-c2ncc3c(N4CC5C=CC(C4)N5)nc(OC[C@@]45CCCN4C[C@H](F)C5)nc3c2F)c1` [Compound 1], for which 4.75 nM corresponded to half-maximal inhibition (IC50).
